Counter-ions that a name gives are not always drawn.
Legend:
[1] = molecular target: T1, human mGluR4 transiently over-expressed in HEK-293 cells (Homo sapiens, UniProt Q14833); experiment: Human mGluR4 positive allosteric modulator evaluation using Ca++ functional assay; type: cell-based; conditions: HEK-293 cells co-transfected with hmGluR4 and chimeric G protein; EC10 glutamate; intracellular calcium (Fluo4AM); read-out: mean EC50 of agonist/positive allosteric modulator activity on mGluR4
T1 construct: expressed in transfected cells; host or cells: HEK-293 cells, transient co-transfection by electroporation
Procedure: Human mGluR4 Positive Allosteric Modulator Evaluation Using Ca^++ Functional Assay
Compounds of the present invention were tested successively for their agonist and positive allosteric modulator activities on human mGluR4 transiently over-expressed in HEK-293 cells. They exert agonist activity if, by themselves in absence of the endogenous glutamate, they are able to activate mGluR4; and they exert positive allosteric modulator activity if they increase the action of the endogenous glutamate.
Cell Culture and Transfection
HEK-293 cells were maintained in Modified Eagle's Medium supplemented with 10% Foetal Calf Serum, 1% Penicillin/Streptomycin and 1% non essential amino acids at 37° C./5% CO2.
Cells were co-transfected by electroporation with two DNA plasmids encoding hmGluR4 and a chimeric G protein allowing redirection of the activation signal to intracellular calcium pathway. Cells were plated after transfection onto polyornithine coated, clear bottom, black-walled, 96-well plates and cultured for 24 h.
Calcium Assay EC50 Determination
Receptor activity was detected by changes in intracellular calcium measured using the fluorescent Ca^2+ sensitive dye, Fluo4AM (Molecular Probes).
The day of the assay, medium was aspirated and replaced during 3 hours by medium without serum supplemented with 1% Glutamax, 1% Penicillin/Streptomycin and 1% non essential amino acids. Then, cells were washed with freshly prepared buffer B (HBSS 1×(PAA), Hepes 20 mM, MgSO4-7H2O 1 mM, Na2CO3 3.3 mM, CaCl2-2H2O 1.3 mM, 0.5% BSA, Probenecid 2.5 mM) and loaded at 37° C. in 5% CO2 for 1.5 hours with buffer B containing 1 μM Fluo4AM 0.1 mg/mL Pluronic Acid, 7 μg/mL Glutamate Pyruvate Transaminase and 2 mM sodium pyruvate. Afterwards cells were washed twice with buffer B and 50 μL of this buffer were added to each well. Addition of compounds and intracellular Ca^2+ measurements (excitation 485 nm, emission 525 nm) were performed by the fluorescence microplate reader FlexStation (Molecular Devices).
Agonist and positive allosteric modulator activities of compounds were consecutively evaluated on the same cells plate. Agonist activity was first tested during 60 s with the addition of compound alone on the cells. Then, the cells were stimulated by an EC10 glutamate concentration and fluorescence recorded for additional 60 s. EC10 glutamate concentration is the concentration giving 10% of the maximal glutamate response. Agonist and/or positive allosteric modulator activity(ies) were evaluated in comparison to basal signal evoked by EC10 glutamate alone.
For EC50 determination, a dose-response test was performed using 6 to 9 concentrations of each compound of the invention. Dose-response curves were fitted using the sigmoidal dose-response (variable slope) analysis in GraphPad Prism program (Graph Pad Inc) and EC50 of agonist/positive allosteric modulator activity was calculated. Dose-response experiments were all performed in duplicate, two times independently.

T1 sequence (Q14833 33-912): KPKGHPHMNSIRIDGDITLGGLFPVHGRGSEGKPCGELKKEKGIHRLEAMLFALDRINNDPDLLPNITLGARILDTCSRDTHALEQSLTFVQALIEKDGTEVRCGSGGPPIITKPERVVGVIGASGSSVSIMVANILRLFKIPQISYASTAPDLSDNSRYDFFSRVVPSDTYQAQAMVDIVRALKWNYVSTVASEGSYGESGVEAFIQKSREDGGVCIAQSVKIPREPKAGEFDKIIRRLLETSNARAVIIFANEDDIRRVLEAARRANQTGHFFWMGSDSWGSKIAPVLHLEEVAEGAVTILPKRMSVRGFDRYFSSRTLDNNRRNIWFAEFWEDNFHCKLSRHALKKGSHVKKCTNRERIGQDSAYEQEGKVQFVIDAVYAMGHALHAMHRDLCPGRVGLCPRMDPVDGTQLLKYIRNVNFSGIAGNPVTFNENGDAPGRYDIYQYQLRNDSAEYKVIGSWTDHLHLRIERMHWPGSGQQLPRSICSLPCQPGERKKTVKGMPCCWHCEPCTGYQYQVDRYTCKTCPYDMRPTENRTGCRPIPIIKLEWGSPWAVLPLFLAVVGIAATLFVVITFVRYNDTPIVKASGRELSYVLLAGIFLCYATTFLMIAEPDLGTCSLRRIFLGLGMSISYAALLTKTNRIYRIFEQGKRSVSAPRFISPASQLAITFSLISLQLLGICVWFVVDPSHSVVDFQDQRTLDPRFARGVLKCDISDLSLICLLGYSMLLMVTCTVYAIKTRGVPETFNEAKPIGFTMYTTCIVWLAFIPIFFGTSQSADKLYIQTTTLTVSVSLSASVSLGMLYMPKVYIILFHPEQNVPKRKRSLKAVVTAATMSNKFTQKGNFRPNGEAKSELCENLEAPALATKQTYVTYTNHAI

SMILES | EC50 [1] [nM] | melting point
Cl.ON=c1cc(-c2cc3cccn3cn2)oc2ccc(OCCN3CCCCC3)cc12 [Example 88, 6-(2-Piperidin-1-yl-ethoxy)-2-pyrrolo[1,2-c]pyrimidin-3-yl-chromen-4-one oxime, hydrochloride] | < 5000 | > 255 °C (dec.)
Cl.ON=c1cc(-c2cc3sccc3cn2)oc2ccc(OCCN3CCOCC3)cc12 [Example 127, 6-(2-Morpholin-4-yl-ethoxy)-2-thieno[3,2-c]pyridin-6-yl-chromen-4-one oxime, hydrochloride] | < 1000 | > 230 °C (dec.)
ON=c1cc(-c2cc3cccn3cn2)oc2ccc(OCCOc3cccnc3)cc12 [Example 148, 6-[2-(Pyridin-3-yloxy)-ethoxy]-2-pyrrolo[1,2-c]pyrimidin-3-yl-chromen-4-one oxime] | < 1000 | 170 to 175 °C
Cl.ON=c1cc(-c2cn3cccc3cn2)oc2ccc(OCCn3ccnc3)cc12 [Example 125, 6-(2-Imidazol-1-yl-ethoxy)-2-pyrrolo[1,2-a]pyrazin-3-yl-chromen-4-one oxime, hydrochloride] | < 1000 | 238 to 240 °C
COC1CCCN(CCOc2ccc3oc(-c4cc5cccn5cn4)cc(=NO)c3c2)C1.Cl (stereo not shown) [Example 108, 6-[2-(3-methoxy-piperidin-1-yl)-ethoxy]-2-pyrrolo[1,2-c]pyrimidin-3-yl-chromen-4-one oxime, hydrochloride] | < 1000 | 178 to 184 °C
Cl.Cl.ON=c1cc(-c2cc3cccn3cn2)oc2ccc(OCCN3CCC(N4CCCCC4)CC3)cc12 [Example 116, 6-(2-[1,4′]bipiperidinyl-1′-yl-ethoxy)-2-pyrrolo[1,2-c]pyrimidin-3-yl-chromen-4-one oxime, dihydrochloride] | < 1000 | > 235 °C (dec.)
COc1cccc2oc(-c3cc4cccn4cn3)cc(=NO)c12 [Example 139, 5-Methoxy-2-pyrrolo[1,2-c]pyrimidin-3-yl-chromen-4-one oxime] | < 1000 | 240 to 243 °C
ON=c1cc(-c2cc3cccn3cn2)oc2cccc(C(F)(F)F)c12 [Example 153, 2-Pyrrolo[1,2-c]pyrimidin-3-yl-5-trifluoromethyl-chromen-4-one oxime] | < 5000 | 255 to 257 °C
ON=c1cc(-c2cc3cccn3cn2)oc2ccc(OCCN3C[C@@H]4C[C@H]3CO4)cc12 [Example 111, 6-[(1S,4S)-2-(2-oxa-5-aza-bicyclo[2.2.1]hept-5-yl)-ethoxy]-2-pyrrolo[1,2-c]pyrimidin-3-yl-chromen-4-one oxime, hydrochloride] | < 1000 | –
ON=c1cc(-c2cc3cccn3cn2)oc2ccc(CCCN3CCOCC3)cc12 [Example 106, 6-(3-morpholin-4-yl-propyl)-2-pyrrolo[1,2-c]pyrimidin-3-yl-chromen-4-one oxime, hydrochloride] | < 1000 | –
ON=c1cc(-c2cc3cccn3cn2)oc2ccc(Br)cc12 (mixture of isomers) [Example 66, 6-bromo-2-Pyrrolo[1,2-c]pyrimidin-3-yl-chromen-4-one oxime] | < 5000 | –
C[C@@H]1CN(CCOc2ccc3oc(-c4cc5cccn5cn4)cc(=NO)c3c2)C[C@H](C)O1 [Example 112, 6-[2-(cis-2,6-dimethyl-morpholin-4-yl)-ethoxy]-2-pyrrolo[1,2-c]pyrimidin-3-yl-chromen-4-one oxime, hydrochloride] | < 1000 | –
ON=c1cc(-c2cc3cccn3cn2)oc2cc(OCCCN3CCOCC3)ccc12 [Example 143, 7-(3-Morpholin-4-yl-propoxy)-2-pyrrolo[1,2-c]pyrimidin-3-yl-chromen-4-one oxime hydrochloride] | < 1000 | –
ON=c1cc(-c2cc3cccn3cn2)oc2cc(OCCN3CCOCC3)ccc12 [Example 142, 7-(2-Morpholin-4-yl-ethoxy)-2-pyrrolo[1,2-c]pyrimidin-3-yl-chromen-4-one oxime, hydrochloride] | < 1000 | –

Further lines, results first:

EC50 [1] [nM] | melting point | SMILES
< 5000 | 223 to 225 °C | CN(C)c1ccc2oc(-c3cc4ccccc4cn3)cc(=NO)c2c1 [Example 39, 6-dimethylamino-2-isoquinolin-3-yl-chromen-4-one oxime]
< 1000 | 243 to 245 °C | ON=c1cc(-c2cc3ccsc3cn2)oc2ccccc12 (mixture of isomers) [Example 69, 2-Thieno[2,3-c]pyridin-5-yl-chromen-4-one oxime]
< 5000 | 250 to 254 °C | ON=c1cc(-c2cc3ccccc3cn2)oc2ccc(OC(F)(F)F)cc12 (mixture of isomers) [Example 10, 2-isoquinolin-3-yl-6-trifluoromethoxy-chromen-4-one oxime]
< 5000 | 279 to 281 °C | N#Cc1ccc2c(=NO)cc(-c3cc4ccccc4cn3)oc2c1 [Example 58, 7-cyano-2-isoquinolin-3-yl-chromen-4-one oxime]
< 5000 | 265 to 270 °C | ON=c1cc(-c2cc3ccccc3cn2)oc2cc(C#Cc3ccncc3)ccc12 (mixture of isomers) [Example 26, 2-isoquinolin-3-yl-7-(pyridin-4-yl)ethynyl-chromen-4-one oxime]
< 1000 | 247 to 249 °C | ON=c1cc(-c2cc3cccn3cn2)oc2ccc(OCCc3ccc(Cl)cc3)cc12 [Example 140, 6-[2-(4-Chloro-phenyl)-ethoxy]-2-pyrrolo[1,2-c]pyrimidin-3-yl-chromen-4-one oxime]
< 1000 | > 276 °C | ON=c1cc(-c2cn3cccc3cn2)oc2ccccc12 [Example 91, 2-Pyrrolo[1,2-a]pyrazin-3-yl-chromen-4-one oxime]
< 5000 | 279 to 283 °C | ON=c1cc(-c2cc3ccccc3cn2)oc2cc(Br)ccc12 (mixture of isomers) [Example 2, 7-bromo-2-isoquinolin-3-yl-chromen-4-one oxime]
< 1000 | 266 to 269 °C | ON=c1cc(-c2cc3ccccc3cn2)oc2ccc(Br)cc12 (mixture of isomers) [Example 4, 6-bromo-2-isoquinolin-3-yl-chromen-4-one oxime]
< 5000 | > 210 °C (dec.) | Cl.ON=c1cc(-c2cc3cccn3cn2)oc2ccc(CNCc3ccc(F)cc3)cc12 [Example 144, 6-[(4-Fluoro-benzylamino)-methyl]-2-pyrrolo[1,2-c]pyrimidin-3-yl-chromen-4-one oxime hydrochloride]
< 5000 | – | ON=c1cc(-c2cc3ccccc3cn2)oc2ccc(C3CC3)cc12 (mixture of isomers) [Example 34, 6-cyclopropyl-2-isoquinolin-3-yl-chromen-4-one oxime]
< 5000 | – | COn1ccc2cc(-c3cc(=NO)c4ccccc4o3)ncc21 [Example 78, 2-(1-Methoxy-1H-pyrrolo[2,3-c]pyridin-5-yl)-chromen-4-one oxime]
< 5000 | – | ON=c1cc(-c2cc3ccn(O)c3cn2)oc2ccccc12 [Example 76, 2-(1-Hydroxy-7H-pyrrolo[2,3-c]pyridin-5-yl)-chromen-4-one oxime]
< 1000 | – | ON=c1cc(-c2cc3cnccc3cn2)oc2ccccc12 [Example 61, 2-[2,6]Naphthyridin-3-yl-chromen-4-one oxime]
< 1000 | – | ON=c1cc(-c2cc3nccn3cn2)oc2ccccc12 (mixture of isomers) [Example 73, 2-Imidazo[1,2-c]pyrimidin-7-yl-chromen-4-one oxime]
< 1000 | – | CNc1cccc(C#Cc2ccc3c(=NO)cc(-c4cc5ccccc5cn4)oc3c2)c1 (mixture of isomers) [Example 51, 2-Isoquinolin-3-yl-7-{3-methylaminophenylethynyl}-chromen-4-one oxime]
< 1000 | – | ON=c1cc(-c2cc3cccn3cn2)oc2ccc(OCCCOc3cccc(F)c3)cc12 [Example 163, 6-[3-(3-Fluoro-phenoxy)-propoxy]-2-pyrrolo[1,2-c]pyrimidin-3-yl-chromen-4-one oxime]

— patent US8962627B2, “Oxime derivatives and their use as allosteric modulators of metabotropic glutamate receptors” (Prestwick Chemical, Inc., priority 2009, dated 2015)
